Source: patent US12076307B2, “Compositions for prevention or treatment of acute radiation syndrome and other radiation exposure” (priority 2017, dated 2024)

Assays:
hERG channel = hERG channel (Homo sapiens, UniProt Q12809); assay: In vitro hERG channel inhibition; settings: for hERG channel current suppression rate (compensated suppression rate): HEK-293 cells
CYP2D6 = CYP2D6 (Homo sapiens, UniProt P10635); assay: CYP enzyme inhibition in human liver microsomes, CYP2D6
Description: CYP1A2, CYP2C9, CYP2C19, CYP2D6, and CYP3A4 are the CYP subfamily, which plays a critical role in the metabolism of most drugs.

Sprague-Dawley rats = assay: Central nervous system of rats (FOB); assay type: in vivo, rat; settings: doses up to 2000 mg/kg; to 24 hrs
Experimental: Sprague-Dawley rats (n=8 males/group) received control material (olive oil) or EC-18 at 500, 1000, and 2000 mg/kg. The functional observational battery test, which included observations inside the cage, in open space, and while holding in the hands, along with sensory-motor function, and body temperature measurements were performed before EC-18 administration and 0.5, 1, 3, 6, and 24 hrs after control or EC-18 administration.

[1] = In vitro plasma stability, human plasma; assay type: in vitro ADME; settings: Humans; 1 μM; 37° C.; n=3
Experimental: To assess the stability of EC-18 in plasma, the test material, or the standard reference material (test concentration 1 μM) was mixed with rat and human plasma and allowed to react for 1 hr at 37° C. Then, the residual EC-18 concentration was measured by LC-MS/MS. As standard reference materials, albendazole (a drug with high plasma stability) and vinpocetine (a drug with low plasma stability) were tested in parallel. When allowed to react with rat and human plasma for 1 hr, the residual EC-18 concentration in both rat and human plasma was >99% of the initial dose.

[2] = system: RIPK1/3-MLKL-mediated necroptosis pathway; assay: Necroptosis signaling and DAMP release in HaCaT cells treated with CM or rhHMGB1; assay type: cell-based, human
Experimental: An additional experiment was tested for assessing whether EC-18 treatment leads to early termination of the RIPK1/3-MLKL-mediated downstream necroptosis pathway. This was performed by using DAMP-containing conditioned media (CM) harvested from HaCaT cells, irradiated for 48 hrs, and analyzed after 2 or 72 hrs of EC-18 treatment. […] To further confirm that DAMPs in CM contribute to the activation of a necroptosis signaling pathway in a paracrine manner, recombinant human HMGB1 (rhHMGB1) was treated directly to the normal HaCaT cells. The rhHMGB1 elevated the phosphorylation of RIPK1/3 and MLKL after 2 hrs and subsequently released HMGB1 and HSP90 (FIGS. 35C-35D). To evaluate whether EC-18 mitigates the activation of RIPK1/3 and MLKL, 10 or 100 μg/mL of EC-18 was treated before the addition of CM or rhHMGB1. As a result, EC-18 lowered the phosphorylation of RIPK/3 and MLKL in both CM- and rhHMGB1-treated cells after 2 hrs. Release of HMGB1 and Hsp90 was also subsided by EC-18 after 72 hrs of post addition of CM or rhHMGB1 to the cells (FIGS. 35A-35D). TLR4-induced necroptosis signaling pathway caused by DAMP release produces cytokines, such as CXCL8, a chemotactic cytokine for neutrophils. As CXCL8 increases upon tissue damage, it was measured in cells treated with CM or rhHMGB1 as a measure of inflammation. […]

Sprague Dawley rats = assay: Respiratory function in rats; assay type: in vivo, rat; settings: single oral doses up to 2000 mg/kg
Experimental: EC-18 was orally administered to Sprague Dawley rats (n=6 males/group) at single doses of 0, 500, 1000 and 2000 mg/kg. Tidal volume, respiration rate per minute and minute volume were measured with whole-body plethysmograph at 0 (pre-dose), 1, 2 and 4-hr post-dose.

[3] = system: Chinese hamster lung cells (CHL/IU); assay: Chromosomal aberration test; assay type: cell-based; settings: 6 and 24 hrs; with or without metabolic activation
Description: (§1) Various toxicology studies have been performed. All studies were GLP-compliant unless otherwise noted.

SD rat = assay: Immunotoxicity study (splenic blastogenesis response test); assay type: in vivo; settings: Oral; 4 weeks
Description: as §1

Balb/c mice, TBI = assay: Estimation of dose reduction factor (DRF); assay type: in vivo, mouse
Experimental: Analysis of several TBI, 24-hr delayed administration of EC-18 at 250 mg/kg in Balb/c mice yields an estimate of the dose reduction factor (DRF) of EC-18.

ICR mouse = assay: Micronucleus assay; assay type: in vivo; settings: Oral; Single; 0, 500, 1000, 2000 mg/kg
Description: as §1

[4] = Pathway of excretion in rats after single oral [14C]EC-18; assay type: in vivo, rat; settings: 50 mg/kg oral, 50 mg/kg
Experimental: To assess the routes of EC-18 excretion, male rats were administered a single dose of [^14C]EC-18 (oral dose of 50 mg/kg), after which, radioactive concentrations were measured in urine, feces, and exhaled air in the chamber of the animals for 168 hrs, and in the body after the autopsy.

Beagle dog = assay: Cardiovascular function in conscious dogs; assay type: in vivo; settings: doses up to 2000 mg/kg
Experimental: CA was administered to one unanesthetized and unrestrained telemetered male Beagle dog and EC-18 (500, 1000, or 2000 mg/kg) was administered to each of three unanesthetized and unrestrained telemetered male Beagle dogs (1:1:1:1) weekly for 4 weeks. Cardiovascular effects were evaluated based on the behavioral observations, BP, HR, and ECG, from 1-hr pre-dose to 24-hr post-dose.

hERG channel, sequence (Q12809 whole entry): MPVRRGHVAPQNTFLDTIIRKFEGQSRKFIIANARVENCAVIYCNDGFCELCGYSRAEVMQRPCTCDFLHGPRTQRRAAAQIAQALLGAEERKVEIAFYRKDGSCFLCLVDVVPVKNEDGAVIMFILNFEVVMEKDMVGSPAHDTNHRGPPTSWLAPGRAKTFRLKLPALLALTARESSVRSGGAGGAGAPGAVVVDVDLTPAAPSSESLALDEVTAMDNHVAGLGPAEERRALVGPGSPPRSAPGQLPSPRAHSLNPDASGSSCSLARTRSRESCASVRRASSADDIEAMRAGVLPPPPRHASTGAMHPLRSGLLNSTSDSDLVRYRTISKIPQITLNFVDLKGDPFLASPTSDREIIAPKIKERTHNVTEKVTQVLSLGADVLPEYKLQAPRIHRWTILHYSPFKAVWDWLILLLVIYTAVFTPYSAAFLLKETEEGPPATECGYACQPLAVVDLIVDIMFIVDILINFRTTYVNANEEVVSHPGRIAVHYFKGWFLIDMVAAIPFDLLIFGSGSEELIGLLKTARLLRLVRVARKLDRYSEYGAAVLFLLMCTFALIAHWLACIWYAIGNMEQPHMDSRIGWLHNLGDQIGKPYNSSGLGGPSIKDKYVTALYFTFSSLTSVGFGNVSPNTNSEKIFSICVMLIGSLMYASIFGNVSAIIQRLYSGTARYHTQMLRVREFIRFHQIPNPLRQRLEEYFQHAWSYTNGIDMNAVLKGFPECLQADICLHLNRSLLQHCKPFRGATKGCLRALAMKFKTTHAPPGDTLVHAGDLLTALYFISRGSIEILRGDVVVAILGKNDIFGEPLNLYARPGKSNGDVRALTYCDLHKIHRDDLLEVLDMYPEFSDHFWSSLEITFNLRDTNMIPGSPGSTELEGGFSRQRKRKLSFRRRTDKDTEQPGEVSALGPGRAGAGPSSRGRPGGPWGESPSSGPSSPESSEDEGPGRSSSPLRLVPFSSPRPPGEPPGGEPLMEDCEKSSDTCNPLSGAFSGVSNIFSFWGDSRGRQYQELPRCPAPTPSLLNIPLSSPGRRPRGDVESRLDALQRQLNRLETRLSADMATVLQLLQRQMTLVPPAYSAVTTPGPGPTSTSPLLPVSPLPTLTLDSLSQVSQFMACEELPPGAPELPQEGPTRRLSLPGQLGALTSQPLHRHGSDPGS
CYP2D6, sequence (P10635 whole entry): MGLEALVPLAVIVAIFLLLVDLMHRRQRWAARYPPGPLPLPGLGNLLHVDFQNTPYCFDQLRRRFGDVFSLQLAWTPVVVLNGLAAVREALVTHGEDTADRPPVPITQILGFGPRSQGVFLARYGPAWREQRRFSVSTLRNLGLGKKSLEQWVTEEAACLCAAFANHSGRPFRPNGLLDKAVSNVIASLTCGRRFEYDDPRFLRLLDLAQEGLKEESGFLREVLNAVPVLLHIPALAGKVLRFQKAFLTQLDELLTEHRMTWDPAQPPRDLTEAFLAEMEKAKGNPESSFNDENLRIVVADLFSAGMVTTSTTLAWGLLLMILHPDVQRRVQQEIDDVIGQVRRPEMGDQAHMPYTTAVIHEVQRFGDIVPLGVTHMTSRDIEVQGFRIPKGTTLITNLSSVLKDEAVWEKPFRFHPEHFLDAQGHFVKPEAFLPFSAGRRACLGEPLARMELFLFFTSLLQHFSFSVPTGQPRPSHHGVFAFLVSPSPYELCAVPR

CCCCC/C=C\C/C=C\CCCCCCCC(=O)OC(COC(C)=O)COC(=O)CCCCCCCCCCCCCCC (stereo not shown) [EC-18, 1-palmitoyl-2-linoleoyl-3-acetylglycerol]
hERG channel current suppression rate (compensated suppression rate) (hERG channel; 125 μM): 1.39%
hERG channel current suppression rate (compensated suppression rate) (hERG channel; 250 μM): 2.97%
hERG channel current suppression rate (compensated suppression rate) (hERG channel; 500 μM): 2.54%
hERG channel current suppression rate (compensated suppression rate) (hERG channel; 1000 μM): 2.90%
hERG channel current inhibition (hERG channel; concentrations up to 1000 μM): did not inhibit the hERG channel current
IC50 (CYP2D6): 67.9 µM
CNS (functional observational battery) (Sprague-Dawley rats): did not affect the CNS
Residual Concentration Relative to the Initial Dose After Reaction for 1 hr in Plasma [1]: >99%
phosphorylation of RIPK1/3 and MLKL ([2]; 10 or 100 μg/mL before CM or rhHMGB1, after 2 hrs): lowered
release of HMGB1 and Hsp90 ([2]; 10 or 100 μg/mL, 72 hrs after CM or rhHMGB1): subsided
respiratory function (Sprague Dawley rats): did affect the respiratory function
inducible effects on chromosomal aberration [3]: EC-18 didn't have
T and B lymphocyte proliferation (SD rat): No changes in T and B
DRF at LD30/30 (Balb/c mice, TBI; 250 mg/kg): 1.45
DRF at LD70/30 (Balb/c mice, TBI; 250 mg/kg): 1.18
DRF at LD95/30 (Balb/c mice, TBI; 250 mg/kg): 1.05
LD Estimate LD30/30, Presence of EC-18 (Balb/c mice, TBI; 250 mg/kg): 5.26 Gy
LD Estimate LD50/30, Presence of EC-18 (Balb/c mice, TBI; 250 mg/kg): 5.50 Gy
LD Estimate LD70/30, Presence of EC-18 (Balb/c mice, TBI; 250 mg/kg): 5.76 Gy
LD Estimate LD95/30, Presence of EC-18 (Balb/c mice, TBI; 250 mg/kg): 6.09 Gy
Lethality, Presence of EC-18 (Balb/c mice, TBI; 6.11 Gy, 250 mg/kg 24-hr delayed): 6/40 (15%)
Lethality, Presence of EC-18 (Balb/c mice, TBI; 6.5 Gy, 250 mg/kg 24-hr delayed): 8/20 (40%)
Lethality, Presence of EC-18 (Balb/c mice, TBI; 7 Gy, 250 mg/kg): 10/10 (100%)
Lethality, Presence of EC-18 (Balb/c mice, TBI; 8 Gy, 250 mg/kg): 10/10 (100%)
Lethality, Presence of EC-18 (Balb/c mice, TBI; 10 Gy, 250 mg/kg): 4/4 (100%)
micronucleus induction in mouse bone marrow cells (ICR mouse): EC-18 does not affect
Cumulative Radioactive Concentration Relative to the Administered Dose, Exhaled Air ([4]; 0-24 hr): approximately 71%
Cumulative Radioactive Concentration Relative to the Administered Dose, Feces ([4]; 0-24 hr): ~3%
Cumulative Radioactive Concentration Relative to the Administered Dose, Total ([4]; 0-24 hr): approximately 76%
Cumulative Radioactive Concentration Relative to the Administered Dose, Urine ([4]; 0-24 hr): ~2%
Cumulative Radioactive Concentration Relative to the Administered Dose, Exhaled Air ([4]; 0-72 hr): ~77%
Cumulative Radioactive Concentration Relative to the Administered Dose, Feces ([4]; 0-72 hr): ~4%
Cumulative Radioactive Concentration Relative to the Administered Dose, Total ([4]; 0-72 hr): approximately 83%
Cumulative Radioactive Concentration Relative to the Administered Dose, Urine ([4]; 0-72 hr): ~2%
Cumulative Radioactive Concentration Relative to the Administered Dose, Cadaver ([4]; 0-168 hr): approximately 10%
Cumulative Radioactive Concentration Relative to the Administered Dose, Exhaled Air ([4]; 0-168 hr): ~79%
Cumulative Radioactive Concentration Relative to the Administered Dose, Feces ([4]; 0-168 hr): ~4%
Cumulative Radioactive Concentration Relative to the Administered Dose, Total ([4]; 0-168 hr): ~96%
Cumulative Radioactive Concentration Relative to the Administered Dose, Urine ([4]; 0-168 hr): ~2%
cardiovascular effects (behavior, BP, HR, ECG) (Beagle dog): no cardiovascular effects
